Source: patent US10017509B2, “Macrocylic pyrimidine derivatives” (Janssen Pharmaceutica NV, priority 2014, dated 2018)

Legend:
[1] = target: T1, EF2K (Homo sapiens, UniProt O00418); assay: EF2K cell-based assay (P-EF2 AlphaLISA, 2-deoxyglucose stimulated MCF10A cells); details: 2.5 mM 2-deoxyglucose stimulated, P-EF2 Thr56, pIC50 = -log IC50 (M), read-out: eEF2K_C_PThr56 pIC50 (converted)
T1 construct: host or cells: LN-229 cell lysate
T1 sequence (O00418 1-725): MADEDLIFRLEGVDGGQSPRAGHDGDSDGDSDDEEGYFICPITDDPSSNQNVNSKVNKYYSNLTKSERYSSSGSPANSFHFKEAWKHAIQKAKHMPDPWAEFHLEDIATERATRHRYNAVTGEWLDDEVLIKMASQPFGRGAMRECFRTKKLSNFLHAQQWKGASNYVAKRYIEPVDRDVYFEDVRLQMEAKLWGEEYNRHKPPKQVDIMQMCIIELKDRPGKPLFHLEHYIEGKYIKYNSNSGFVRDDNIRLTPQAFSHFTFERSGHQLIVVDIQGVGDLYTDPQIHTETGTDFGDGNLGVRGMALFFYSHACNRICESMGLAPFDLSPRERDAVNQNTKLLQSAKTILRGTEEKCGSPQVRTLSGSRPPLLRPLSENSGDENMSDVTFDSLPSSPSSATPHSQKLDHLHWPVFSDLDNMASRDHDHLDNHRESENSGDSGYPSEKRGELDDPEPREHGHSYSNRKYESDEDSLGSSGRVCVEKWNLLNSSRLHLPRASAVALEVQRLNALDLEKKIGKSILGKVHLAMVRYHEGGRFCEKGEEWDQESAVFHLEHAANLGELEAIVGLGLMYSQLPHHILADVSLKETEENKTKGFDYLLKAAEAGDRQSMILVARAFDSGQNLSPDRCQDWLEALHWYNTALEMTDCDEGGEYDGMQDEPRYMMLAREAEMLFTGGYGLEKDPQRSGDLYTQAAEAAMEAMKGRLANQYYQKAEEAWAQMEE
Summary of the method: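 MCF10A cells, after 24 h culture, treated 1 h with compound then stimulated 4 h with 2.5 mM 2-deoxyglucose to activate AMPK. Lysates in M-PER with protease/phosphatase inhibitors assayed for P-EF2 by AlphaLISA; pIC50 = −log IC50 (M).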

[2] = target: Vps34 (PIK3C3 lipid kinase) (Homo sapiens, UniProt Q8NEB9); assay: Biochemical Vps34 lipid kinase assay (ADP-Glo); details: for remaining activity at 1 µM: 1 h, single dose 1 μM compound, residual activity compared to control (DMSO), read-out: VPS34_1microM_% of cntrl; for IC50: serial half-log dilution 10 μM to 0.3 nM, pIC50 = -log IC50 (M)
Sequence of Vps34 (PIK3C3 lipid kinase) (Q8NEB9 whole entry, species assumed): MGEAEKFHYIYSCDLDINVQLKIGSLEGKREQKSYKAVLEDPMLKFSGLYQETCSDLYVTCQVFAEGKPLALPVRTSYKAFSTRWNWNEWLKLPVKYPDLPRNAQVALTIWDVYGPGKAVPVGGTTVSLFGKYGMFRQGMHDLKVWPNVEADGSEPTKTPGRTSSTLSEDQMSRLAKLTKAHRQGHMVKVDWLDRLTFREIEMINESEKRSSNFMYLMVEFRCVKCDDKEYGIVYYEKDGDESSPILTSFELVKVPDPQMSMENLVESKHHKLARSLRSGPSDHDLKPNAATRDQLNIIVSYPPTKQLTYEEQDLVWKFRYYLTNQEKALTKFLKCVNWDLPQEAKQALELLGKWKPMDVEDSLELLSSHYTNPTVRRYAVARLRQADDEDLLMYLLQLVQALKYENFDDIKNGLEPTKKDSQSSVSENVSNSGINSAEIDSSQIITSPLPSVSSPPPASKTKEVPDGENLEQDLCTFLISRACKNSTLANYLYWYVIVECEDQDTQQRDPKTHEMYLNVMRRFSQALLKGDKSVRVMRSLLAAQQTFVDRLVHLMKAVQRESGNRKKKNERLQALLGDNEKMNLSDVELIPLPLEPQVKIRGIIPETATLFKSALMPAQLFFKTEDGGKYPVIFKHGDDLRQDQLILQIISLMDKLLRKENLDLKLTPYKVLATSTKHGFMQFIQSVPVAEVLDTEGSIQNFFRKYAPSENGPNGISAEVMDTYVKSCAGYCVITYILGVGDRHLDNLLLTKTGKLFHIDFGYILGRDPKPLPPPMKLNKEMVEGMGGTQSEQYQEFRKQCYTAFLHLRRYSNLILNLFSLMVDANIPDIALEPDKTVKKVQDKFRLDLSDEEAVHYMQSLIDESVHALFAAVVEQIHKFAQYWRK
Summary of the method: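 ADP-Glo luminescence assay of PIK3C3 (7.6 nM) with 50 µM substrate and 20 µM ATP (apparent Km) in HEPES pH 7.5, 100 mM NaCl, 3 mM MnCl2, CHAPS, DTT; 60 min, 30 °C. Single dose 1 µM (residual activity vs DMSO) or half-log series 10 µM-0.3 nM giving pIC50.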

[3] = target: T1, EF2K; assay: Biochemical EF2K lysate-based kinase assay (AlphaLISA p-eEF2 Thr56); details: pIC50 = -log IC50 (M), read-out: eEF2K_C_alphalisa pIC50 (converted)
Summary of the method: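 LN-229 glioblastoma lysate supplied both EF2K and eEF2 substrate; compound incubated 15 min at room temperature in pH 6.6 buffer with 10 mM Mg2+ and 10 mM ATP. EDTA-stopped; phospho-eEF2 Thr56 quantified by AlphaLISA sandwich, final read after overnight. Values as pIC50.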

Row | Structure (SMILES) | IC50 [1] [M] | remaining activity at 1 µM [2] [%] | IC50 [2] [M] | IC50 [3] [M]
1 | CN1CCCN(C)c2ccc(cn2)-c2ccnc(n2)Nc2cccc(c2)CN2CCN(C)C(CC1=O)C2 (stereo not shown) [Compound 129] | 9.33e-06 | 9.26 | 4.68e-07 | 9.55e-07
2 | O=C1NCCCNc2ccc(cn2)-c2ccnc(n2)Nc2cccc(c2)CN2CCN1CC2 [Compound 130] | > 3.02e-05 | 21 | 2.4e-07 | > 3.02e-05
3 | CN1CCN(C)c2ccc(cn2)-c2ccnc(n2)Nc2ccc(O)c(c2)CN2CCN(CC2)CC1=O [Compound 131] | 7.59e-06 | 17.3 | 1.74e-07 | 4.57e-07
4 | O=C1CN2CCN(CC2)Cc2cccc(c2)Nc2nccc(n2)-c2ccc(nc2)CN(C(=O)C(F)(F)F)CCN1 [Compound 132] | 3.98e-06 | 7.12 | 1.91e-07 | 6.92e-08
5 | CS(=O)(=O)N1CCNC(=O)CN2CCN(CC2)Cc2cccc(c2)Nc2nccc(n2)-c2ccc(nc2)C1 [Compound 133] | > 1e-05 | 14.6 | 1.48e-07 | 2.57e-06

The remaining lines, values ahead:

Row | IC50 [1] [M] | remaining activity at 1 µM [2] [%] | IC50 [2] [M] | IC50 [3] [M] | Structure (SMILES)
6 | > 3.02e-05 | 28.4 | 3.39e-07 | 1.58e-05 | CN1CCCNC(=O)CC2CCN(CC2)Cc2cccc(c2)Nc2nccc(n2)-c2ccc1nc2 [Compound 125]
7 | > 3.02e-05 | 4.95 | 7.59e-08 | 1.74e-07 | NC(=O)C1CN2CCN1CC(=O)NCCCNc1ccc(cn1)-c1ccnc(n1)Nc1cccc(c1)C2 (stereo not shown) [Compound 126]
8 | > 3.02e-05 | 19.2 | 3.55e-07 | 3.72e-06 | CN1CCCNc2ccc(cn2)-c2ccnc(n2)Nc2cccc(c2)CN2CCN(CC1=O)C(=O)C2 [Compound 127]
9 | 2.63e-05 | 5.81 | 1.02e-07 | 1.82e-06 | CN1CCCN(C)c2ccc(cn2)-c2ccnc(n2)Nc2cccc(c2)CN2CCNC(CC1=O)C2 (stereo not shown) [Compound 128]
10 | > 1e-05 | 4.78 | 6.46e-08 | 1.29e-06 | NS(=O)(=O)N1CCNC(=O)CN2CCN(CC2)Cc2cccc(c2)Nc2nccc(n2)-c2ccc(nc2)C1 [Compound 134]
